Laboratory results from patent EP1222180B1, “ENANTIOMERIC COMPOUNDS FOR TREATMENT OF CARDIAC ARRHYTHMIAS AND METHODS OF USE” (ARYx Therapeutics, priority 1999, dated 2001).

What was measured:
anesthetized rats = assay: Anti-arrhythmic activity in anesthetized rats (benzene/adrenaline challenge, EKG recording); assay type: in vivo, Male Sprague-Dawley rats; settings: for protection against tachyarrhythmia (heart rate increase after adrenaline): administered from time 0 to time 120 minutes, Figure 3; for Heart rate (beats/minute) / Inhibition of VPB / Inhibition of tachycardia / Number of VPB / PR interval / QRS interval / QT interval: isolated enantiomer compared to the racemate, 4 mg/kg i.v. then 12 mg/kg/h for 2 hours; for inhibition of the formation of ventricular premature beats (VPB): period of drug administration (time 0 to 120 min); for anti-VPB activity at the end of the washout period: time 180 min
Procedure: Male Sprague-Dawley rats with body weights of 410 ± 30 g (Harlan Sprague Dawley Inc., Indianapolis, IN), were anesthetized with sodium pentobarbital (50 mg/kg i.p. - Butler Co., Columbus, OH). The skin from the neck area was removed and the jugular veins on both sides were cleared of connective tissue. Both jugular veins and the left carotid artery were isolated, and the latter tied up cranially with a surgical silk (ETHICON 4-0, Ethicon Inc., Australia). A plastic catheter ([…] 19ga, Vecton Dickinson, Sandy, UT), filled with a solution containing 10% sodium heparin (Elkins-Sinn Inc., Cherry Hill, NJ) in normal saline (100 U/ml sodium heparin), was introduced into the artery and fixed with surgical silk.
The catheter was connected to a pressure transducer (OHMEDA P23-XL, Ohmeda Medical Devices Division Inc., Madison, WI), filled with the same heparinized 0.9% NaCl solution, to register beat-to-beat arterial pressure. Needle electrodes were inserted s.c., and together with the pressure transducer, were joined to a GOULD TA 2000 recorder. Leads II, aVF and intraarterial blood pressure were monitored simultaneously throughout the experiments and recorded at certain intervals at 50 and 200 mm/sec paper speed.
The surgery was completed with an incision on the trachea where a short plastic tubing was placed and the animal was connected to a rodent-model ventilator (HARVARD Model 683, Harvard Apparatus, Inc., Holliston, MA). The animals were ventilated in a controlled way, depending on their spontaneous breathing frequency (55-75/min).
Drug administrations were carried out through i.v. catheters (TERUMO 24 GA*3/4", Terumo Medical Corp., Elkton, MD) inserted into both jugular veins. The left side was used for drug infusions by means of a syringe pump (SAGE INSTRUMENTS, Model 341B, Orion Res. Inc., Boston, MA), and the right side was used for adrenaline injections. The experiments were started after at least 15 minutes of stabilization. Benzene/adrenaline challenges were performed as follows: the respirator inlet was connected to a 50-ml bubbler half-full with benzene (Fisher Scientific, Fair Lawn, NJ) so that the inspired air was saturated with benzene vapor. The animal was ventilated with benzene vapor for two minutes. The tidal volume was typically 1 ml/100g of animal. During the last 30 seconds of benzene ventilation, 10 µg/kg adrenaline solution (in 0.9% NaCl) was injected into the right jugular vein. […] These arrhythmias could be elicited repeatedly. After three control VTs (at -30, -20 and -10 minutes), the test compounds were injected slowly during 30 seconds at a dose of 4 mg/kg i.v., immediately followed by a slow infusion of 12 mg/kg/h for 2 hours. The flow rate during the infusion period was 1 ml/h.
There were 5 rats per test compound and each animal served as its own control. The ability of the different drugs to suppress arrhythmias was tested against repeated benzene/adrenaline challenges at 5, 15, 30, 45, 60, 90, 120 (end of drug infusion), 135, 150, 165 and 180 minutes after the i.v. bolus injection. The amplitudes of the systolic arterial pressure and diastolic arterial pressure […] with the help of a pressure-amplitude calibration curve. Heart rate, number of ventricular complexes during the occurrence of VTs and VPBs, and certain ECG parameters (PR, QRS, QT durations and RR cycle lengths in msec) were also recorded and measured manually. At each time-point, 3-5 cycles were measured and the average values were entered into EXCEL Windows 97. The average and standard deviation for the five experimental animals per compound were calculated.

[1] = assay type: in vitro ADME; settings: human; for hydrolysis half-life: plasma
Procedure: Venous blood (60 ml) was collected in heparinized 15-ml Vacutainer® tubes from the forearm of five human volunteers. Each tube contained 1,000 units of heparin sodium salt. The blood was immediately centrifuged at 2,000 g for 10 minutes and the plasma was collected. Immediately after collection, the plasma was divided into 2-ml aliquots in borosilicate glass tubes (5-ml capacity) capped with a plastic stopper. The tubes were then equilibrated in a 37°C-water bath for at least 15 minutes before the test samples were added. Stock solutions were prepared by dissolving 25 µmoles (about 18 mg) of each of the test compounds in 10 ml of deionized water. To each of the glass tubes containing 2 ml of fresh plasma, equilibrated at 37°C, was added 40 µl of the stock solutions (one test compound per tube). The plasma/stock solutions were then mixed. Samples (250 µl) were collected at time 0 (immediately after mixing test compounds in plasma) and then at 30, 60, 90, 120, 180, 240, and 300 minutes. The test tubes were capped, to avoid concentration due to evaporation, and left in the 37°C bath during the entire experiment. […] The tubes were then capped and vortexed, then kept at -20°C until analysis. […] The supernatant was collected for injection in the HPLC system. […] The detection wavelength was set at 242 nm, and the injected volume was 100 µL. The HPLC peaks were recorded, and the integrated values were plotted against time using the SIGMAPLOT software version 4.0 for WINDOWS. The resulting curves were fitted to a first-order exponential decay equation from which hydrolysis half-lives were calculated.

[2] = benzene vapors and adrenaline challenge, Figure 2

| Plasma half-life [1] [h] | hydrolysis half-life [1] [h] | Structure (SMILES) | protection against tachyarrhythmia (heart rate increase after adrenaline) (anesthetized rats) | effects on the QT segment of the EKG recording (Class-III properties) (anesthetized rats; Figure 4) | effects on the PR segment of the EKG recording (Class-IV activity) (anesthetized rats; Figure 6) | Heart rate (beats/minute) (anesthetized rats) | Inhibition of VPB (anesthetized rats) | Inhibition of tachycardia (anesthetized rats) | Number of VPB (anesthetized rats) | PR interval (anesthetized rats) | QRS interval (anesthetized rats) | QT interval (anesthetized rats) | inhibition of the formation of ventricular premature beats (VPB) (anesthetized rats; [2]) | anti-VPB activity at the end of the washout period (anesthetized rats; [2]) | time at which anti-VPB activity is lost (anesthetized rats; [2]) [min] |
| --- | --- | --- | --- | --- | --- | --- | --- | --- | --- | --- | --- | --- | --- | --- | --- |
|  |  | CC[C@H](C)OC(=O)Cc1oc2ccccc2c1C(=O)c1cc(I)c(OCCN(CC)CC)c(I)c1 [ATI-2042] | very good protection against this tachyarrhythmia |  |  |  |  |  |  |  |  |  |  |  |  |
| 7.3 | 7.3 | CC[C@H](C)OC(=O)Cc1oc2ccccc2c1C(=O)c1cc(I)c(OCCN(CC)CC)c(I)c1 [S-2042, (S)-sec-Butyl 2-[3-(3,5-diiodo-4-(2-diethylaminoethyloxy)benzoyl)]benzofurane-acetate] | more potent and longer acting then R-2042 | the most potent and the longest acting | much more potent than R-2042 and the racemate R,S-2042 | lower | longer | longer | lower | longer | longer | longer | totally inhibited the formation of ventricular premature beats for the whole period of drug administration | still retained part of its activity |  |
|  |  | CC[C@H](C)OC(=O)Cc1oc2ccccc2c1C(=O)c1cc(I)c(OCCN(CC)CC)c(I)c1 [R,S-2042] | the least potent and shortest acting |  |  |  |  |  |  |  |  |  | even less active than either the R- or the S-isomer |  |  |
| 5.0 | 5 | CC[C@@H](C)OC(=O)Cc1oc2ccccc2c1C(=O)c1cc(I)c(OCCN(CC)CC)c(I)c1 [R-2042, (R)-sec-Butyl 2-[3-(3,5-diiodo-4-(2-diethylaminoethyloxy)benzoyl)]benzofurane-acetate] |  |  |  | lower | longer | longer | lower | shorter | no change | no change |  | completely inactive | ~100 |
